Key:
Type in all cases: cell-based
[1] = tested on: Kelly; assay: CellTiter-Glo cell viability, Kelly; settings: Kelly cells, 72 h with compound
Experimental: (§1) Antitumor activity against a panel of cancer cell lines Antitumor activity of the compounds was assessed by using the CellTiter-Glow® Luminescent Cell Viability assay (Promega #G7572) according to the manufacturer's instructions. The compounds were tested at 5 or 6 concentrations in 1:2 dilution increments (highest concentration 10 µM) in triplicate well conditions.
(§2) Tumor cells were grown at 37° C. in a humidified atmosphere with 5% CO2 in RPMI 1640 or DMEM medium, supplemented with 10% (v/v) fetal calf serum and 50 μg/ml gentamicin for up to 20 passages, and were passaged once or twice weekly. Cells were harvested using TrypLE or PBS buffer containing 1 mM EDTA, and the percentage of viable cells is determined using a cell counter.
(§3) Cells were harvested from exponential phase cultures, counted and plated in 96 well flat-bottom microtiter plates at a cell density depending on the cell line's growth rate (4,000-20,000 cells/well depending on the cell line's growth rate) in RPMI 1640 or DMEM medium supplemented with 10% (v/v) fetal calf serum and 50 μg/ml gentamicin (140 μl/well). Cultures were incubated at 37° C. and 5% CO2 in a humidified atmosphere. After 24 h, 10 μl of test compounds or control medium are added, and left on the cells for another 72 h. Compounds were serially diluted in DMSO, transferred in cell culture medium, and added to the assay plates. The DMSO concentration was kept constant at <0.2% v/v across the assay plate. Viability of cells was quantified by the CellTiter-Glow® Luminescent Cell Viability assay (Promega #G7572). Luminescence was measured with the microplate luminometer (En Vision Perkin Elmer).
(§4) Sigmoidal concentration-response curves were fitted to the data points (test-versus-control, T/C values) obtained for each tumor model using Graph Pad prism 5.02 software. IC50 values are reported as absolute IC50 values, being the concentration of test compound at the intersection of the concentration-response curves with T/C=50%.

[2] = tested on: MOLT-4; assay: CellTiter-Glo cell viability, MOLT-4; settings: Homo sapiens; MOLT-4 cells, 72 h with compound
Experimental: as §1, §2
as §3, with “After 24 h, 10 μl of test compounds or control medium are added, and left on the cells for another 72 h. Compounds were serially diluted in DMSO, transferred in cell culture medium, and added to the assay plates. The DMSO concentration was kept constant at <0.2% v/v across the assay plate.” left out, “Elmer). […]” for “Elmer).”

[3] = tested on: NCI-H1299; assay: CellTiter-Glo cell viability, NCI-H1299; settings: Homo sapiens, NCI-H1299; H1299 cells, 72 h with compound
Experimental: as §1, §2, §3, §4

[4] = tested on: MIA-PaCa-2; assay: CellTiter-Glo cell viability, MIA-PaCa-2; settings: Homo sapiens; MIA-PaCa-2 cells, 72 h with compound
Experimental: as §1, §2, §3, §4

[5] = tested on: CHP-134; assay: Caspase-Glo 3/7 apoptosis assay, CHP-134; settings: CHP-134 cells, 3.16 μM, 24 h
Experimental: Apoptosis activity was evaluated using Caspase-Glo 3/7 Assay kit (Promega-G8091) according to the manufacturer's instructions. Cells were grown as above and harvested from exponential phase cultures, counted and plated in 96 black well flat-bottom microtiter plates at a cell density depending on the cell line's growth rate (3,000-10,000 cells/well depending on the cell line's growth rate). Following an overnight incubation, compounds were added to the cell plates at various concentrations (highest at […]) with the DMSO concentration maintained at 0.1% for a 24 h period treatment. 100 μL of Caspase-Glo 3/7 Reagent was added to each well of 96-well plate containing 100 μL culture medium, and after 30 min at room temperature, luminescence was measured with the microplate luminometer (EnVision Perkin Elmer). The induced relative Caspase 3/7 activity of the tested compounds was determined by the following formula: Relative Caspase 3/7 activity (fold increase)=(RLU compound−RLU blank)/(RLU control−RLU blank).

[6] = tested on: NFKB; assay: SelectScreen CellSensor pathway inhibition, NFKB; settings: Homo sapiens; NFKB-bla Jurkat, stimulus TNF-alpha
Experimental: (§5) Inhibition of various cellular pathways known to be involved in malignancy was tested using the SelectScreen Cell-based Pathway Profiling GeneBLAzer™ cell signaling pathway specific CellSensor™ cell lines ((Thermo Fisher). The assay is based on a beta-lactamase reporter activity which is modulated and can be measured quantitatively and selectively with the LiveBLAzer™-FRET B/G Loading Substrate. SelectScreen Cell-Based Pathway Profiling Service uses XLfit from IDBS. The dose response curve is curve fit to model number 205 (sigmoidal dose-response model). Custom logic was built by Thermo Fisher for the data analysis tool to address the different compound characteristics that can be observed with functional assays.
NFKB—NFKB-bla Jurkat—Inhibitor Screen, Activated by TNF-Alpha
NFKB-bla Jurkat cells are thawed and resuspended in Assay Media (DMEM, 10% dialyzed FBS, 25 mM HEPES pH 7.3, 0.1 mM NEAA, 100 U/mL/100 μg/mL Pen/Strep) to a concentration of 625,000 cells/mL. […] 4 μL of 10×control activator TNF-alpha at the pre-determined EC80 concentration is added to wells containing the control inhibitor or compounds.
The plate is incubated for 5 hours at 37° C./5% CO2 in a humidified incubator. […] The plate is read on a fluorescence plate reader.

[7] = tested on: Toll-like Receptor (TLR4); assay: SelectScreen CellSensor pathway inhibition, Toll-like Receptor (TLR4); settings: Homo sapiens; NFkB-bla THP-1, stimulus LPS
Experimental: as §5
Toll-like Receptor (TLR4)—NFKB-bla THP-1—Inhibitor Screen, Activated by LPS
NFKB-bla THP-1 cells are thawed and resuspended in Assay Media (RPMI, 0.5% dialyzed FBS, 0.1 mM NEAA, 1 mM Sodium Pyruvate, 100 U/mL/[…] Pen/Strep) to a concentration of 625,000 cells/mL. 32 μL of cell suspension is added to each well of a 384-well TC-Treated assay plate. Cells in Assay Media are incubated for 16-24 hours in the plate at 37° C./5% CO2 in a humidified incubator. […] The plate is read on a fluorescence plate reader.

IC50 [2]: 400 nM | IC50 [3]: 40 nM | IC50 [4]: 22 nM | IC50 [6]: 1530 nM | IC50 [7]: 560 nM
SMILES: COc1ccc2c(=O)c(-c3ccc(CCCC[P+](c4ccccc4)(c4ccccc4)c4ccccc4)cc3)coc2c1OC.[Br-] [SND470, (4-(4-(7,8-Dimethoxy-4-oxo-4H-chromen-3-yl)phenyl)butyl)triphenylphosphonium bromide]
IC50 [1]: 12 nM | Fold activation of Caspase 3/7 [5]: 7.02 Fold

From patent US20260028364A1, “CATIONIC CHROMENONES AND THEIR USE IN ONCOLOGY” (FLORATEK PHARMA S.A., priority 2022, published 2026)
